Data published in patent US9045490B2, “Use of parthenolide derivatives as antileukemic and cytotoxic agents” (University of Kentucky, priority 2003, dated 2015).

Key:
NF-κB DNA binding = experiment: Electrophoretic mobility gel shift assay (EMSA); format: cell-based; conditions: three hours
Description: Each cancer cell line in exponential growth phase was treated with solvent control or various concentrations of parthenolide derivatives dissolved in 100% ethanol for 3 hours prior to harvesting. Cells were harvested and whole cell extracts were prepared as described previously (Nakshatri et al., Mol Cell Biol, 17: 3629-3639, 1997; Sweeney et al., Clin Cancer Res, 10: 5501-5507, 2004). Extracts were incubated with a radiolabelled NFκB probe for 30 minutes at room temperature. The oligonucleotide probe binds to the NFκB DNA binding site in the promoter region of the immunoglobulin gene. Electrophoresis and autoradioragraphy were performed as described previously (Nakshatri et al., 1997) using NFκB and SP-1 probes (Promega, Madison, Wis.). The specificity of parthenolide and derivative inhibition of NFκB DNA binding was verified by the use of the SP-1 probe as a control. Identification of the NFκB subunits binding to DNA and inhibited by DMAPT were identified by gel supershift. Constitutive NF-κB DNA binding activity was determined in the lung cancer cell lines A-549, H-23, H-522, and H-460. All four non-small lung cancer cells were treated with increasing concentrations of DMAPT for three hours, and NF-κB DNA binding was measured by electrophoretic mobility shift assay (EMSA) as described. NF-κB DNA binding activity was highest in A-549 cells, followed by H-23, H-522 and H-460 cells.
Cancer cell lines HT-1376 and UMUC-3 were treated with increasing concentrations of DMAPT for three hours. Whole cell extracts were prepared as described and DNA binding by NF-κB was analyzed by EMSA with NF-κB and OCT-1 (internal control) probes.
The hormone refractory prostate cancer cell line, CWR22Rv1 was treated with increasing concentrations of DMAPT for three hours. Whole cell extracts were prepared as described and DNA binding by NF-κB was analyzed by EMSA with NF-κB and SP-1 (internal control) probes.

[1] = Preliminary toxicity study in mice; format: in vivo; conditions: oral 40 mg/kg daily, three weeks, mice gained weight and survived
Description: Preliminary in vivo work was conducted to determine the bioavailability and toxicity of this agent in mice.

[2] = tested on: hormone refractory prostate cancer cell line CWR22Rv1; experiment: MTS-PMS cellular proliferation assay; format: cell-based; conditions: at 5 μm, CWR22 MTS-PMS assay
Description: A 96-well U-bottomed plate (Becton Dickinson Labware, Franklin Lakes, N.J.) at a concentration of 5,000 cells per 50 microliters […] of media was incubated in 5% CO2 at 37° C. for 24 hours. Varying compound concentrations in […] of media were added to the media 24 hours later. Colorimetric readings were obtained using the MTS/PMS system and an ELISA plate reader, after 48 hours of exposure to DMAPT. The readings obtained for each concentration tested were from an average of eight wells. Each experiment was expressed as a percentage of the solvent control and completed at least three times with consistent results. The results presented are an average of three experiments. The hormone refractory prostate cancer cell line CWR22Rv1 was treated with increasing concentrations of parthenolide and DMAPT. for three hours Both parthenolide and DMAPT reduced cellular proliferation by 50% at 5 μm in the CWR22 MTS-PMS assay. Cellular proliferation was also measured in the MTS-PMS assay using four lung cancer cell lines treated with parthenolide and derivatives PIPT ((11S,11,13-dihydro,13-(piperidin-1-yl)parthenolide), 4MEPT (11S,11,13-dihydro,13-(4-methylpiperidin-1-yl)parthenolide) and MAPT (11S,11,13-dihydro,13-dimethylaminoparthenolide). Parthenolide and its derivatives inhibited cellular proliferation in a dose dependent manner between 2 and 10 μM with 70% inhibition at 10 μM in A549, 50% in H460, 40% in H-23 and 40% in H522 (FIGS. 2-5).

## C/C1=C\CC[C@@]2(C)O[C@@H]2[C@H]2OC(=O)[C@H](CN(C)C)[C@@H]2CC1 [DMAPT, 11S,11,13-Dihydro,13-dimethylaminoparthenolide]
NF-κB DNA binding; CWR22Rv1, 10 μM
  NF-κB DNA binding: substantial decreases
NF-κB DNA binding; HT-1376 and UMUC-3 cell lines, increasing concentrations
  NF-κB DNA binding: decreased NF-κB DNA binding in a dose-dependent manner
NF-κB DNA binding; lung cancer cell lines A-549, H-23, H-522, H-460, between 2 and 10 micromolar
  NF-κB DNA binding activity: substantially decreased
[1]
  toxicity on daily oral treatment: no overt toxicities
[2]
  reduction of cellular proliferation: 50%
